Results reported in ChEMBL document CHEMBL5154659, “A3 adenosine receptor agonists containing dopamine moieties for enhanced interspecies affinity” (Eur J Med Chem, 2022).
Converted amounts (≈) assume the structure as drawn.

Legend:
Adenosine receptor A3 [1] = molecular target: T1, Adenosine receptor A3 (Homo sapiens, UniProt P0DMS8); assay: Displacement of [125I] N6-(4-amino-3-iodobenzyl)adenosine-5'-N-methyluronamide from human A3A receptor stably expressed in HEK293 cell membrane by radioligand inhibition assay; assay type: cell membranes
T1 sequence (P0DMS8 whole entry): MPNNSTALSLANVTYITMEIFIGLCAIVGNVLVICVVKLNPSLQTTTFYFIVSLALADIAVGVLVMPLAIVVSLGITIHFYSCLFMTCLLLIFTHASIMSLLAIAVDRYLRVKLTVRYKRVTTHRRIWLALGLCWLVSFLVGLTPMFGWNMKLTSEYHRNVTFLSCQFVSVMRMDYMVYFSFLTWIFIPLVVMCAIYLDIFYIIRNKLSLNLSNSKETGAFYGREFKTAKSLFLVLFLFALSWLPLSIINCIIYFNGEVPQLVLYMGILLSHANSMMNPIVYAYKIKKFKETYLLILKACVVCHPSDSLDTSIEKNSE

Adenosine receptor A2a [2] = molecular target: T2, Adenosine receptor A2a (Homo sapiens, UniProt P29274); assay: Binding affinity to human adenosine A2A receptor expressed in human HEK293 cell membrane at 10 uM by radioligand inhibition assay; assay type: cell membranes
Adenosine receptor A3 [3] = molecular target: T3, Adenosine receptor A3 (Mus musculus, UniProt Q61618); assay: Displacement of [125I] N6-4-amino-3-iodobenzyl adenosine 5-N-methyluronamide from mouse A3A receptor stably expressed in HEK293 cell membrane by radioligand inhibition assay; assay type: cell membranes
T3 sequence (Q61618 whole entry): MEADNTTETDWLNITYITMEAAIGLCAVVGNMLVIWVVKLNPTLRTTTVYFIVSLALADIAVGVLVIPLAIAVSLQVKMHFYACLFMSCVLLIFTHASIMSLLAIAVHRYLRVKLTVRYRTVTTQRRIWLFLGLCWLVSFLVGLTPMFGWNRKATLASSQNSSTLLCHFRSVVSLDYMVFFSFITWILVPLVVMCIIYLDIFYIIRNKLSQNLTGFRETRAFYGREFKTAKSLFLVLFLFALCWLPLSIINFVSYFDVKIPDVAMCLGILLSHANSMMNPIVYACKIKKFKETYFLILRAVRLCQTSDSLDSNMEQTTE

Adenosine receptor A1 [4] = molecular target: T4, Adenosine receptor A1 (Homo sapiens, UniProt P30542); assay: Displacement of [3H] N6-R-phenylisopropyladenosine from human A1A receptor stably expressed in HEK293 cell membrane by radioligand inhibition assay; assay type: cell membranes
T4 sequence (P30542 whole entry): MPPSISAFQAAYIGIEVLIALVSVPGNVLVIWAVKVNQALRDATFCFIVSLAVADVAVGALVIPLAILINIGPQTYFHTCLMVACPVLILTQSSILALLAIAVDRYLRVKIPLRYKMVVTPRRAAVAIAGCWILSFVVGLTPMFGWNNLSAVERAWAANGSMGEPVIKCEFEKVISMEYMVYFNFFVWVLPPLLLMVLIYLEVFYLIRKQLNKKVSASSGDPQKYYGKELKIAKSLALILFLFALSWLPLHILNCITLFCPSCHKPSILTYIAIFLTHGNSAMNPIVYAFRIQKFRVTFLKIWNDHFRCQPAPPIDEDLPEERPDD

Adenosine receptor A1 [5] = molecular target: T5, Adenosine receptor A1 (Mus musculus, UniProt Q60612); assay: Displacement of [3H] N6-R-phenylisopropyladenosine from mouse A1A receptor stably expressed in HEK293 cell membrane by radioligand inhibition assay; assay type: cell membranes
T5 sequence (Q60612 whole entry): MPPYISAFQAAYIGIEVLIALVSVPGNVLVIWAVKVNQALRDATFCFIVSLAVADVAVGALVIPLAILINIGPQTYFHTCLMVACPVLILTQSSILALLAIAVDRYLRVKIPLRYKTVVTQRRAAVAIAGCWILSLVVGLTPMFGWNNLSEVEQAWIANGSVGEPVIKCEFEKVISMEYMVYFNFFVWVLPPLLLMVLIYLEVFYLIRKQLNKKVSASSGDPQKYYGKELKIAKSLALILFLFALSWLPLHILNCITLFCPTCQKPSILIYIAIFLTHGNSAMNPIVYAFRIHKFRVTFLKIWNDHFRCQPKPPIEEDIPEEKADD

Cytochrome P450 3A4 = Cytochrome P450 3A4 (Homo sapiens, UniProt P08684); assay: Inhibition of CYP3A4 (unknown origin); assay type: ADME
Cytochrome P450 2C19 = Cytochrome P450 2C19 (Homo sapiens, UniProt P33261); assay: (§1) Inhibition of CYP2C19 (unknown origin); assay type: ADME
[6] = Apparent permeability across apical to basolateral side in human Caco-2 cells; assay type: ADME, cell-based
Cytochrome P450 1A2 = molecular target: T6, Cytochrome P450 1A2 (Homo sapiens, UniProt P05177); assay: Inhibition of CYP1A2 (unknown origin); assay type: ADME
T6 sequence (P05177 whole entry): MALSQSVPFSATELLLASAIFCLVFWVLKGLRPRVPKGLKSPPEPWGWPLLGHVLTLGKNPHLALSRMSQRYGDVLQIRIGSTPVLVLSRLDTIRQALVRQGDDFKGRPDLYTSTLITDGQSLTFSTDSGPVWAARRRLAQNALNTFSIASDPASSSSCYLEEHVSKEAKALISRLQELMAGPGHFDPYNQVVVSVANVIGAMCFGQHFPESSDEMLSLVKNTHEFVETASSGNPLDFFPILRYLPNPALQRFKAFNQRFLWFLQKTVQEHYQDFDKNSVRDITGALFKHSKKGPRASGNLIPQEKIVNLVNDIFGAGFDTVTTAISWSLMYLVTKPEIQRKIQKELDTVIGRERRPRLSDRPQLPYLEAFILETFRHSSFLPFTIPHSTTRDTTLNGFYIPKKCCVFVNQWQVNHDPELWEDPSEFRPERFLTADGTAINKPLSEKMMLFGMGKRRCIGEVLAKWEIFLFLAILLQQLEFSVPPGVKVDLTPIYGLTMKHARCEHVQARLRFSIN

[7] = Microsomal stability in mouse plasma assessed as half life; assay type: ADME, cell-free
[8] = Stability of the compound in simulated intestinal fluid assessed as parent compound remaining at 120 mins; assay type: ADME; conditions: simulated gi fluid, 2 h
[9] = Microsomal stability in human plasma assessed as half life; assay type: ADME, cell-free
[10] = Efflux ratio of permeability in human Caco2 cells; assay type: ADME, cell-based; conditions: caco-2
[11] = Stability of the compound in simulated gastric fluid assessed as parent compound remaining at 120 mins; assay type: ADME; conditions: simulated gi fluid, 2 h
Cytochrome P450 2D6 = Cytochrome P450 2D6 (Homo sapiens, UniProt P10635); assay: (§2) Inhibition of CYP2D6 (unknown origin); assay type: ADME
[12] = Microsomal stability in Wistar rat plasma assessed as half life; assay type: ADME, cell-free
[13] = Stability in Wistar rat plasma assessed as parent compound remaining measured after 120 mins; assay type: ADME, cell-free; conditions: 2 h
[14] = Half life in Wistar rat at 0.5 mg/kg, iv; assay type: ADME, organism-based; conditions: in vivo
[15] = Stability in human plasma assessed as parent compound remaining measured after 120 mins; assay type: ADME, cell-free; conditions: 2 h
[16] = Aqueous solubility of compound at pH 7.4; assay type: physicochemical
[17] = Stability in mouse plasma assessed as parent compound remaining measured after 120 mins; assay type: ADME, cell-free; conditions: 2 h
[18] = molecular target: T7, Adenosine receptor A1 (Homo sapiens) (UniProt P30542); assay: Binding affinity to human adenosine A1A receptor expressed in human HEK293 cell membrane at 10 uM by radioligand inhibition assay; assay type: cell membranes
T7 sequence (whole entry): T4 sequence (P30542 whole entry)

Cytochrome P450 2C9 = Cytochrome P450 2C9 (Homo sapiens, UniProt P11712); assay: Inhibition of CYP2C9 (unknown origin); assay type: ADME
[19] = molecular target: Voltage-gated inwardly rectifying potassium channel KCNH2 (Homo sapiens, UniProt Q12809); assay: Inhibition of human ERG; assay type: toxicity
[20] = Oral bioavailability in Wistar rat at 10 mg/kg; assay type: ADME, organism-based; conditions: in vivo
CYP2C19 = CYP2C19 (Homo sapiens, UniProt P33261); assay: as §1; assay type: ADME
CYP2D6 = CYP2D6 (Homo sapiens, UniProt P10635); assay: as §2; assay type: ADME
Adenosine receptor A2a [21] = molecular target: T2, Adenosine receptor A2a; assay: Displacement of [3H]-2-p-2-(carboxyethyl)phenyl-ethylamino-5'-N-ethylcarboxamidoadenosine from human A2A receptor stably expressed in HEK293 cell membrane by radioligand inhibition assay; assay type: cell membranes
[22] = Oral bioavailability in Wistar rat at 3 mg/kg; assay type: ADME, organism-based; conditions: in vivo

T2 sequence (P29274 whole entry): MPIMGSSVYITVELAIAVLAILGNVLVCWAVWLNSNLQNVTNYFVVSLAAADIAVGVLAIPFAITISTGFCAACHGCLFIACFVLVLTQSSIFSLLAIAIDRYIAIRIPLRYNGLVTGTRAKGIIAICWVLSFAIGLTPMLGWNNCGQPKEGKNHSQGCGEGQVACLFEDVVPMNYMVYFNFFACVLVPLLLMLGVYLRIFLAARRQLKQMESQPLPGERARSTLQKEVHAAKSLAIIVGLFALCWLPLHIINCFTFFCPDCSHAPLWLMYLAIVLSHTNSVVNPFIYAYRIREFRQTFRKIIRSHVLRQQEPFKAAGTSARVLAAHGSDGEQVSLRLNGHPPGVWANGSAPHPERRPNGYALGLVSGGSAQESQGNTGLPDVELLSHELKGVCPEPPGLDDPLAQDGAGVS
Voltage-gated inwardly rectifying potassium channel KCNH2, sequence (Q12809 whole entry): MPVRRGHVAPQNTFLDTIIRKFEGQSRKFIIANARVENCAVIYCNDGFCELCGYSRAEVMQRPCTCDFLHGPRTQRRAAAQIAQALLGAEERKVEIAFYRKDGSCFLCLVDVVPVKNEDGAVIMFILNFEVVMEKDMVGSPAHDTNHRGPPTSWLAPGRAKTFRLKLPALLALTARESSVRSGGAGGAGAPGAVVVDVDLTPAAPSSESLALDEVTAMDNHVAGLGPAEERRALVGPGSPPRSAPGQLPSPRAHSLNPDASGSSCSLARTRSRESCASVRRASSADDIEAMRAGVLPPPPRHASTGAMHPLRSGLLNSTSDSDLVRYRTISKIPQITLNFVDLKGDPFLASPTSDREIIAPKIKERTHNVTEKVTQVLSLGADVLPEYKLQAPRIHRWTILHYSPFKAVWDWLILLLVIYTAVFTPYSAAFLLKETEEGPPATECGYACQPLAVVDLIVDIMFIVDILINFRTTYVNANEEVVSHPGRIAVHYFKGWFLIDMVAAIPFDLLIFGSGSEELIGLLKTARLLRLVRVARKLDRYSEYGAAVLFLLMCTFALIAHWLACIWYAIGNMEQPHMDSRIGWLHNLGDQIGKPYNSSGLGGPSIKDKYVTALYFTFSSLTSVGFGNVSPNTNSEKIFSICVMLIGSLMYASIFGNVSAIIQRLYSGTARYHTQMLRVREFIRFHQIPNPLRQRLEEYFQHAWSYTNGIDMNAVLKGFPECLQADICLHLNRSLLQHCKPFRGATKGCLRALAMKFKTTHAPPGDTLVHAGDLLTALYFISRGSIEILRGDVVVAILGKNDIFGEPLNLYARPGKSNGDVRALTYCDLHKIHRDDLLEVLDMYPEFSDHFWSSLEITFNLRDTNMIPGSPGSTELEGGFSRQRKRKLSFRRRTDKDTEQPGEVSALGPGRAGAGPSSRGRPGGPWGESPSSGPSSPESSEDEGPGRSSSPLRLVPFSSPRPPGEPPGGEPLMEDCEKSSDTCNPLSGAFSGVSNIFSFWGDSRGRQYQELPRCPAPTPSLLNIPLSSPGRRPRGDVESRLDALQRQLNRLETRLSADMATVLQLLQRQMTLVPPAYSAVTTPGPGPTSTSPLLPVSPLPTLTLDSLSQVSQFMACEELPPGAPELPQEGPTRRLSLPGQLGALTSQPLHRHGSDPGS
Cytochrome P450 3A4, sequence (P08684 whole entry): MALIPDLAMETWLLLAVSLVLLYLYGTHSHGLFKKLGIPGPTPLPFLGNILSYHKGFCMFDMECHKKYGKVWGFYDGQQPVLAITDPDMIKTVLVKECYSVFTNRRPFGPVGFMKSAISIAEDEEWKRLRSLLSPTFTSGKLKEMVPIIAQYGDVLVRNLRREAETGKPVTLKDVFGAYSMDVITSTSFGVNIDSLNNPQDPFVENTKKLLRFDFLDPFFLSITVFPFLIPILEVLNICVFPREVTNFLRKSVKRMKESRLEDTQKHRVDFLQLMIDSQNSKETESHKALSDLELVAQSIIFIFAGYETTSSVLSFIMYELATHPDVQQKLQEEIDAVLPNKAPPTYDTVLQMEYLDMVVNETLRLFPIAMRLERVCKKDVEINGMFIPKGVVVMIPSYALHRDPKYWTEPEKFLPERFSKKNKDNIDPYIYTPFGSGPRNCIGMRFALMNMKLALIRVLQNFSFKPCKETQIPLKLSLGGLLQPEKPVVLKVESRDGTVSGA
Cytochrome P450 2C9, sequence (P11712 whole entry): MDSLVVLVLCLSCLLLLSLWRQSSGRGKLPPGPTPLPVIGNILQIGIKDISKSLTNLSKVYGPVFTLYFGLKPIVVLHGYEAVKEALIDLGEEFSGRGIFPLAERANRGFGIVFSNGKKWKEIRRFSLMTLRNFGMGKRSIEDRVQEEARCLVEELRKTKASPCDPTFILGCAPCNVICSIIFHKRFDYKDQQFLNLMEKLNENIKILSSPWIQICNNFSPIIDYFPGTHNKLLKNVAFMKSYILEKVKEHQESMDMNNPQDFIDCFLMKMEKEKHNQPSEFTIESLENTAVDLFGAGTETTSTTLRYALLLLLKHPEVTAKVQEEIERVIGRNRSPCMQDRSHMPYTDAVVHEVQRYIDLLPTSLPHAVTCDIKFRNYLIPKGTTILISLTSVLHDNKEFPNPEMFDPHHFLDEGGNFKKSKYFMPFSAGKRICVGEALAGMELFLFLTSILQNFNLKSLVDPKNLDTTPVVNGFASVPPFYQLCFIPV
Cytochrome P450 2C19, sequence (P33261 whole entry): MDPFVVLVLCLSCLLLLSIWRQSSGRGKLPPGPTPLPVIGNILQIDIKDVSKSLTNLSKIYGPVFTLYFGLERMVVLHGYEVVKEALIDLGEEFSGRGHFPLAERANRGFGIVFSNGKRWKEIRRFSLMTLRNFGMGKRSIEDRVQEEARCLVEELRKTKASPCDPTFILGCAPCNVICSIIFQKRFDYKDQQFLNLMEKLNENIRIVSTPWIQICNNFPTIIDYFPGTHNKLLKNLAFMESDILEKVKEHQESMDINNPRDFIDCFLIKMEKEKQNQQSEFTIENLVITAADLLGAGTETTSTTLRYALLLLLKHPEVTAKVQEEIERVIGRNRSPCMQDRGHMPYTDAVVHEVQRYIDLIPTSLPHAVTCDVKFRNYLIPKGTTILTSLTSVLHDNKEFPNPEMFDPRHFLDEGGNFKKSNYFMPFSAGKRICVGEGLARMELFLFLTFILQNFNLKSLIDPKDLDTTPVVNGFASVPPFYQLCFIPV
Cytochrome P450 2D6, sequence (P10635 whole entry): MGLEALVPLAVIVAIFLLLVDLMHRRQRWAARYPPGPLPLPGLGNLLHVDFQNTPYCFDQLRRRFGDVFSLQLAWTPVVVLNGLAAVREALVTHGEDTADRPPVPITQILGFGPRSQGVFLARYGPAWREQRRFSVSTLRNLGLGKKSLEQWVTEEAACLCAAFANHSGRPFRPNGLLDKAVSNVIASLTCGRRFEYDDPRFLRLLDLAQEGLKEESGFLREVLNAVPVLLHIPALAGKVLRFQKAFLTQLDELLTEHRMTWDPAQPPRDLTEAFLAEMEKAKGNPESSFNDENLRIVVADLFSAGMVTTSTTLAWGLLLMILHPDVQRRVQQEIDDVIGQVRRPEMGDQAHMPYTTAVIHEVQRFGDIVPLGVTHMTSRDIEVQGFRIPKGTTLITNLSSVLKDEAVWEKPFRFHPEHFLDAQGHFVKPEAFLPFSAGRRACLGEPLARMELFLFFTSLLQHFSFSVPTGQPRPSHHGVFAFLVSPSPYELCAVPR
CYP2C19, sequence (P33261 whole entry): as the sequence (P33261 whole entry) above
CYP2D6, sequence (P10635 whole entry): as the sequence (P10635 whole entry) above

| Ki (Adenosine receptor A3 [1]) [nM] | inhibition (Adenosine receptor A2a [2]) [%] | Ki (Adenosine receptor A3 [3]) [nM] | Ki (Adenosine receptor A1 [5]) [nM] | IC50 (Cytochrome P450 3A4) [nM] | IC50 (Cytochrome P450 2C19) [nM] | IC50 (Cytochrome P450 1A2) [nM] | half-life [7] [min] | Stability [8] [%] | half-life [9] [min] | Stability [11] [%] | IC50 (Cytochrome P450 2D6) [nM] | half-life [12] [min] | Stability [13] [%] | half-life [14] [min] | Stability [15] [%] | solubility ([16]; buffer) [µg/mL] | Stability [17] [%] | IC50 (Cytochrome P450 2C9) [nM] | Compound | IC50 [19] [nM] | further results |
| --- | --- | --- | --- | --- | --- | --- | --- | --- | --- | --- | --- | --- | --- | --- | --- | --- | --- | --- | --- | --- | --- |
| 4.48 | 39 | 1.69 | 272 | – | – | – | – | – | – | – | – | – | – | – | – | – | – | – | CNC(=O)[C@@]12C[C@@H]1[C@@H](n1cnc3c(NCCc4ccccc4)nc(I)nc31)[C@H](O)[C@@H]2O | – | Ki (Adenosine receptor A1 [4]): 574 nM |
| 8.67 | 16 | 2.21 | 7050 | 780 | 15100 | 430 | 6.72 | 100 | 2 | 100 | 17700 | 11.5 | 100 | 43.9 | 100 | 3.84 (≈ 6.3 µM) | 100 | > 30000 | CNC(=O)[C@@]12C[C@@H]1[C@@H](n1cnc3c(NCCc4ccc(OC)c(OC)c4)nc(C#Cc4ccc(Cl)s4)nc31)[C@H](O)[C@@H]2O | 3650 | Papp [6]: 0.44 10^-6 cm/s; Ratio [10]: 46.6; inhibition [18]: 0%; bioavailability [20]: 1.88% |
| – | – | – | – | – | – | – | 7.92 | – | 16.3 | – | – | 15.7 | – | 16.4 | – | – | – | – | COc1cc(CCNc2nc(C#Cc3ccccc3)nc3c2ncn3[C@H]2[C@H](O)[C@H](O)[C@@H]3C[C@@H]32)ccc1O | 5390 | IC50 (CYP2C19): > 30000 nM; Papp A→B [6]: 2.71 ×10⁻⁶ cm/s; IC50 (CYP2D6): > 30000 nM; solubility ([16]; aqueous, read-out: solubility): 13 µg/mL (≈ 26.1 µM) |
| – | – | 17.6 | 317 | 830 | > 30000 | 250 | 9.15 | 64.5 | 6.51 | 100 | > 30000 | 22.5 | 84.6 | 101 | 56.9 | 167 (≈ 317 µM) | 94.6 | > 30000 | CNC(=O)[C@@]12C[C@@H]1[C@@H](n1cnc3c(NCCc4ccc(OC)c(O)c4)nc(OCC(C)C)nc31)[C@H](O)[C@@H]2O | 16500 | Ki (Adenosine receptor A2a [21]): 588 nM; bioavailability [22]: 4.34% |
